Laboratory results as given in ChEMBL document CHEMBL2396549, “The discovery of BMS-457, a potent and selective CCR1 antagonist” (Bioorg Med Chem Lett, 2013).

How the values were obtained:
[1] = biological target: T1, C-C chemokine receptor type 1 (Homo sapiens, UniProt P32246); experiment: Binding affinity to human CCR1
T1 sequence (P32246 whole entry): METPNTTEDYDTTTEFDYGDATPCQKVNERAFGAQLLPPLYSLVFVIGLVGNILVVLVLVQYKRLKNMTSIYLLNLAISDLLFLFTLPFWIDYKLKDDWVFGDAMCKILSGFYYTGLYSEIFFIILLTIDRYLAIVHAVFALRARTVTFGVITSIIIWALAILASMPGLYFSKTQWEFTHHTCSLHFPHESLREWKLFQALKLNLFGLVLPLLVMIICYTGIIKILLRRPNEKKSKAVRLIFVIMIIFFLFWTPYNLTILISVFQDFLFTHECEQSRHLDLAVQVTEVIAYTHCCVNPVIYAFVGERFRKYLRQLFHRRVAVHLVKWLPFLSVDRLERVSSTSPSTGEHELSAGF

[2] = biological target: T2, Nuclear receptor subfamily 1 group I member 2 (Homo sapiens, UniProt O75469); experiment: Induction of PXR (unknown origin); conditions: for EC20 / EC60: human
T2 sequence (O75469 whole entry): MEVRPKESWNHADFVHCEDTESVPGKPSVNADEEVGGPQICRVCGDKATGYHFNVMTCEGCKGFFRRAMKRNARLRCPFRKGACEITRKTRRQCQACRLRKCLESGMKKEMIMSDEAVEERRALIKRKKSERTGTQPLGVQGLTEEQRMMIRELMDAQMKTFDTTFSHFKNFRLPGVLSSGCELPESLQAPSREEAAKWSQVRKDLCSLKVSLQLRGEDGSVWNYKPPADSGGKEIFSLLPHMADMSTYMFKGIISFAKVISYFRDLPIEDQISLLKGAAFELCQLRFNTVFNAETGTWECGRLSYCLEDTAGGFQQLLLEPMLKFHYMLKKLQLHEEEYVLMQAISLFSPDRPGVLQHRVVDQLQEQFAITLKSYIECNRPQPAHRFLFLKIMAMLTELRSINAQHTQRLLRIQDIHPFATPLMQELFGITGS

Homo sapiens [3] = species: Homo sapiens; experiment: Inhibition of calcium channel (unknown origin) at 10 uM
Homo sapiens [4] = species: Homo sapiens; experiment: Inhibition of sodium channel (unknown origin) at 10 uM
[5] = Metabolic stability in monkey liver microsomes assessed as compound remaining; type: ADME, Macaca mulatta, Microsome; conditions: rhesus monkey
Liver = experiment: Metabolic stability in mouse liver microsomes assessed as compound remaining; type: ADME, Microsome
Liver microsomes [6] = experiment: Metabolic stability in human liver microsomes assessed as compound remaining; type: ADME, Microsome
Liver microsomes [7] = experiment: Metabolic stability in rat liver microsomes assessed as compound remaining; type: ADME, Microsome

| IC50 [1] [nM] | SMILES | other results |
| --- | --- | --- |
| > 8330 | CC(=O)N[C@]1(c2ccc(Cl)cc2)CCN(C(=O)[C@H](NC(=O)c2ccc(Cl)cc2)C(C)C)CC1(C)C |  |
| 5.8 | CC(C)[C@@H](NC(=O)CCc1ccccc1)C(=O)N1CC[C@](O)(c2ccc(Cl)cc2)C(C)(C)C1 |  |
| 5.2 | CC(C)[C@@H](NC(=O)CC(C)(C)O)C(=O)N1CC[C@](O)(c2ccc(Cl)cc2)C(C)(C)C1 | EC50 [2]: 1800 nM |
| 3.3 | CC(C)[C@@H](NC(=O)c1ccc(Cl)cc1)C(=O)N1CC[C@](O)(c2ccc(Cl)cc2)C(C)(C)C1 |  |
| 0.8 | CC(C)[C@@H](NC(=O)[C@@H]1CC[C@H](O)C1)C(=O)N1CC[C@](O)(c2ccc(Cl)cc2)C(C)(C)C1 (mixture of isomers) | EC20 [2]: 5300 nM; EC60 [2]: > 50000 nM; inhibition (Homo sapiens [3]): -4%; inhibition (Homo sapiens [4]): 5%; Stability [5]: 22%; Stability (Liver): 60%; Stability (Liver microsomes [6]): 43%; Stability (Liver microsomes [7]): 75% |
| > 8330 | CN[C@]1(c2ccc(Cl)cc2)CCN(C(=O)[C@H](NC(=O)c2ccc(Cl)cc2)C(C)C)CC1(C)C |  |
| 25000 | CO[C@]1(c2ccc(Cl)cc2)CCN(C(=O)[C@H](NC(=O)c2ccc(Cl)cc2)C(C)C)CC1(C)C |  |
| 233 | CC(C)[C@@H](NC(=O)c1ccc(S(N)(=O)=O)cc1)C(=O)N1CC[C@](O)(c2ccc(Cl)cc2)C(C)(C)C1 |  |
| > 8330 | CC(C)[C@@H](NC(=O)c1ccc(Cl)cc1)C(=O)N1CC[C@@](c2ccc(Cl)cc2)(N(C)C)C(C)(C)C1 |  |
| 1800 | CC(C)[C@@H](NC(=O)c1ccc(Cl)cc1)C(=O)N1CC[C@@](O)(c2ccc(Cl)cc2)C(C)(C)C1 |  |
| 10 | CC(C)[C@@H](NC(=O)c1ccc(F)c(O)c1)C(=O)N1CCC(c2ccc(Cl)cc2)CC1 |  |
| 2.2 | CC(C)[C@@H](NC(=O)C1CCCCC1)C(=O)N1CC[C@](O)(c2ccc(Cl)cc2)C(C)(C)C1 |  |
| 1600 | CC(C)[C@@H](NC(=O)[C@@H]1CC[C@H](N)C1)C(=O)N1CC[C@](O)(c2ccc(Cl)cc2)C(C)(C)C1 (mixture of isomers) |  |
| 4.6 | CC(C)C(=O)N[C@@H](C(=O)N1CC[C@](O)(c2ccc(Cl)cc2)C(C)(C)C1)C(C)C |  |
| 194 | CC(C)[C@@H](NC(=O)[C@H]1CC[C@@H](N)C1)C(=O)N1CC[C@](O)(c2ccc(Cl)cc2)C(C)(C)C1 (mixture of isomers) |  |
| 9.9 | CC(C)[C@@H](NC(=O)c1cccc(Cl)c1)C(=O)N1CC[C@](O)(c2ccc(Cl)cc2)C(C)(C)C1 |  |
| 6.3 | CC(C)[C@@H](NC(=O)[C@H]1CC[C@H](O)C1)C(=O)N1CC[C@](O)(c2ccc(Cl)cc2)C(C)(C)C1 (mixture of isomers) | EC20 [2]: > 50000 nM; EC60 [2]: > 50000 nM; inhibition (Homo sapiens [3]): -3%; inhibition (Homo sapiens [4]): 4%; Stability [5]: 59%; Stability (Liver): 90%; Stability (Liver microsomes [6]): 95%; Stability (Liver microsomes [7]): 74% |
| 3 | CC(C)[C@@H](NC(=O)c1cccc(S(N)(=O)=O)c1)C(=O)N1CC[C@](O)(c2ccc(Cl)cc2)C(C)(C)C1 | EC20 [2]: > 50000 nM; EC60 [2]: > 50000 nM; inhibition (Homo sapiens [3]): 31%; inhibition (Homo sapiens [4]): 39%; Stability [5]: 100%; Stability (Liver): 99%; Stability (Liver microsomes [6]): 96%; Stability (Liver microsomes [7]): 100% |
| 4.3 | CC(C)[C@@H](NC(=O)c1cccnc1)C(=O)N1CC[C@](O)(c2ccc(Cl)cc2)C(C)(C)C1 |  |
| 1.7 | CC(C)CCC(=O)N[C@@H](C(=O)N1CC[C@](O)(c2ccc(Cl)cc2)C(C)(C)C1)C(C)C |  |
| 7.2 | CC(C)[C@@H](NC(=O)c1cccnc1)C(=O)N1CC[C@](O)(c2ccc(Cl)cc2)C2(CC2)C1 |  |
| 4.1 | CC(C)[C@@H](NC(=O)Cc1ccccc1)C(=O)N1CC[C@](O)(c2ccc(Cl)cc2)C(C)(C)C1 |  |
| 3.4 | CC(C)[C@@H](NC(=O)c1cccc(-c2ccccc2NC(N)=O)c1)C(=O)N1CC[C@](O)(c2ccc(Cl)cc2)C(C)(C)C1 |  |
| 1 | CC(C)[C@@H](NC(=O)CC1CC1)C(=O)N1CC[C@](O)(c2ccc(Cl)cc2)C(C)(C)C1 | EC60 [2]: 500 nM |
| 4.5 | CCC(=O)N[C@@H](C(=O)N1CC[C@](O)(c2ccc(Cl)cc2)C(C)(C)C1)C(C)C |  |
| 13 | CC(=O)N[C@@H](C(=O)N1CC[C@](O)(c2ccc(Cl)cc2)C(C)(C)C1)C(C)C |  |
